US20230248702A1, “MICELLE COMPRISING BENZIMIDAZOLE-CARBOHYDRATE CONJUGATE COMPOUND, PREPARATION METHOD THEREOF AND USE THEREOF AS ANTICANCER AGENT OR ANTIVIRAL AGENT COMPRISING THE SAME” (BIOMETRIX TECHNOLOGY INC., priority 2021, published 2023)

Assays:
[1] = system: cancer cell lines (pancreatic cancer cell line ASPC-1, lung cancer cell line A549, breast cancer cell line MCF-7, colorectal cancer cell line HCT 116); experiment: Test for inhibition of growth of cancer cell lines (WST-8 cell viability assay); format: cell-based, humans
Procedure: Pancreatic cancer cell lines ASPC-1, lung cancer cell lines A549, breast cancer cell lines MCF-7, and colorectal cancer cell lines HCT 116 of humans were distributed by Korean Cell Line Bank (KCLB, Seoul in Korea) and grown using culture media. Fetal bovine serum (FBS), 0.1 mM MEM nonessential amino acid (NEAA), 2 mM L-glutamine, and 1 % of penicillin-streptomycin were treated with trypsin every two-three days in a humidified cell culture incubator containing 5 % of CO2 at 37° C. by using DMEM and a 10 % culture flask according to guidelines provided by the KCLB, to subculture cells. […] After 24 hours, each of the nine sorts of compounds in table 2 was added to the well under six concentration conditions and was incubated for 24 hours. After the incubation, the culture medium was thrown away, and cell viability in each well was measured according to an instruction of the manufacturer, using a WST-8 cell viability assay kit (Quanti-MaxTM, BIOMAX). The analysis used the principle that the dehydrogenase of living cells decomposes tetrazolium salt to generate formazan, and based on this, the living cells were quantitatively evaluated. Reduced formazan dye (formazan salt) is soluble in the cell culture medium, and the amount of formazan (formazan) was measured using the direct proportionality to the number of viable cells.

[2] = system: normal lung cell lines MRC-5; experiment: Test for toxicity on normal cell lines (WST-8 cell viability assay); format: cell-based; conditions: rating relative to doxorubicin, 0-50 µM, incubated for 24 hours
Procedure: Normal lung cell lines MRC-5 were distributed by Korean Cell Line Bank (KCLB, Seoul in Korea) and grown using a complete culture medium. Fetal bovine serum (FBS), 0.1 mM MEM nonessential amino acid (NEAA), 2 mM L-glutamine, and 1 % of penicillin-streptomycin were treated with trypsin every two-three days in a humidified cell culture incubator containing 5 % of CO2 at 37° C. by using DMEM and a 10 % culture flask according to guidelines provided by the KCLB, to subculture cells. The culture was incubated until it reached 80-90 % confluence, and the cells continuously moved to the culture flask for a test of inhibition of growth of cancer cell lines.
The normal cell lines (MRC-5) were seeded in 96-well plates at about 7,000 cells per well. […]
After the incubation, the culture medium was thrown away, and cell viability in each well was measured according to an instruction of the manufacturer, using a WST-8 cell viability assay kit (Quanti-MaxTM, BIOMAX).
The analysis used the principle that the dehydrogenase of living cells decomposes tetrazolium salt to generate formazan, and based on this, the living cells were quantitatively evaluated. Reduced formazan dye (formazan salt) is soluble in the cell culture medium, and the amount of formazan (formazan) was measured using the direct proportionality to the number of viable cells.

Structure (SMILES)	Test for inhibition of growth of cancer cell line ([1]; rating relative to doxorubicin, 0-50 µM, incubated for 24 hours)	Test for toxicity on normal cell line [2]	total number of cancer cells remained within 24 hours ([1]; concentrations of Table 2 (0-50 µM), 24 hours) [%]
CCCSc1ccc2nc(NC3O[C@H](CO)[C@@H](O)[C@H](O)[C@H]3O)[nH]c2c1 (stereo partly drawn) [Albendazole-glucose conjugate (Al-G), 6-(propylthio)-1H-benzoimidazol-2-aminoglucose]	C (a C rating denotes a very weak quality (10 times or more))	AAA (an AAA rating denotes no toxicity (1/30 times or less))	
COc1cccc2c1C(=O)c1c(O)c3c(c(O)c1C2=O)C[C@@](O)(C(=O)CO)C[C@@H]3O[C@H]1C[C@H](N)[C@H](O)[C@H](C)O1 [doxorubicin, reference compound]			≥ 70
